Measurements as given in patent US20230331792A1, “NEW MULTI-FUNCTIONAL OLIGOPEPTIDES” (ENLITISA (SHANGHAI) PHARMACEUTICAL CO., LTD., priority 2019, published 2023).
Bridge positions count the residues as written; N and C are the ends. Square brackets hold non-standard residues; d marks the D form. Ends that are not written are not given here. I, II: the chains in the order shown. Dopa = N[C@@H](Cc1ccc(O)c(O)c1)C(=O)O; Hyp = O=C(O)[C@@H]1C[C@@H](O)CN1

Columns and labels:
[1] = Pharmacokinetics of montelukast with and without sMAP; details: SD, rat, plasma, 0.2 mg
C57BL/6 mice = assay: Air pouch model (carrageenan-induced acute inflammation); assay type: in vivo; set-up: key to Inflammation score / Edema score: 1 = mild, 2 = moderate, 3 = severe; details: dexamethasone 400 μg/mouse
Experimental: Healthy adult male C57BL/6 mice weighing between 20 and 30 g were supplied by Changzhou Cvens Experimental Animal Co. Ltd. Prior to any experiments being conducted, the mice were housed under standardized conditions (at a constant temperature or 22±2° C., with alternating 12-hour periods of light and darkness), and were fed on a standard mouse diet with water, for about a week. The mice were randomly divided into 9 groups as described in Table 4, with 7 mice in each group.
General anaesthesia was induced using intraperitoneal delivery of 3% chloral hydrate (Sinopharm Chemical Reagent Co., Ltd., Shanghai, China); 1 mL/10 g of body weight). The hair of the entire dorsum was shaved and depilated one day before sterile air injection.
Air pouches were produced by subcutaneous injection of sterile air (5 mL) into the intrascapular area of the mice. After three days, another injection of air (3 mL) was performed to maintain the pouches. In order to induce acute inflammation, three days after the second injection, animals received an injection of sterile carrageenan solution (CP Kelco, Taixing, Jiangsu Province, China; 1%, 0.5 mL; produced by adding 0.1 g of carrageenan powder into a beaker containing 10 mL of 0.9% saline solution and stirring). Mice were pre-treated with test samples or vehicle 1 hour before and 23 hours after the carrageenan injection into the subcutaneous air pouch. Animals were sacrificed 24 hours after the carrageenan injection.
Skin biopsies were taken from the air pouches. A part of the biopsy was fixed in formalin (produced by adding ultra-pure water to 50 mL of a 40% formaldehyde solution (Nanchang Rain Dew Experimental Equipment Co., Ltd., Nanchang, […] Provence, China) up to a total volume of 500 mL) and analyzed by histological embedding in paraffin wax, sectioning and staining.
The histological specimens were analyzed, and an inflammation score and an edema score were estimated. The inflammation scores were estimated by observing heamatoxylin and eosin (HE) stained slices under an optical microscope. Scores (between 1 to 3 points) were given according to the perceived inflammation level (e.g. in cases where only a small amount of inflammatory cells scattered in the area: 1 point was given (mild); in cases where many inflammatory cells were observed: 2 points were given (moderate); and, in cases with diffuse infiltration: 3 points were given (severe)). A similar scoring system was employed for edema levels (3 points for most severe and 1 point for mild) after overall observation.
After conducting some preliminary experiments to validate the model, an experiment was conducted in which mice were treated by administering test samples or vehicle in accordance with Table 4 below. Compound A and Compound B were dissolved in saline at concentrations indicated in Table 4 below (L=low dose, M=medium dose, H=high dose).
Compound A and Compound B were synthesized as described in Examples 8 and 7 above, respectively. The peptide powders were stored at −20° C. prior to use. Dexamethasone (Dex) was obtained from Shanghai Aladdin Bio-Chem Technology Co., Ltd., Shanghai, China.

[2] = test system: Human Influenza A Virus H1N1; details: virus mixed with drug 1 hour, 2-128 μg/mL; Vero cells; viral RNA
person two = assay: Ulcerative colitis, patient case; assay type: in vivo, human; details: oral 5-aminosalicylic acid for 3 days
Description: person two was diagnosed with an acute attack of ulcerative colitis. […] After this, they were given the same Compound C gel as described in Example 41 above, at the same dose, 3 times over the first two days. The frequent with which they had to go to the toilet reduced to 3 to 4 times a day.

in vivo = details: SD, rat
Experimental: The rats were treated by administering test samples.
The rats were anesthetized by 2% isoflurane inhalation. The rats were placed in the supine position, the rectum end stool was extruded and 75% alcohol cotton ball was used to disinfect the anal periphery skin area.
A 2 mL syringe was used to draw back the air bag cavity to ensure that there was no air in the air bag after water filling. The catheter (2-WAY 8Ch/Fr3-5 mm) was inserted into the rats anus at a depth of about 3 cm (2 cm length from the end of the balloon; the tip of the catheter was cut below the position of the urethral catheter tip, and shortened as much as possible while maintaining the integrity of the air cavity. The guide wire was removed, the urethral catheter was sealed with neutral glass glue while ensuring smooth sealing end to reduce the damage to the rectal mucosa).
While the perianal skin was held to fix the catheter and the gavage needle, 1 mL of water was injected with a 2 mL syringe into the airbag cavity in order to expand it, and the needle was then quickly released to observe whether there was gel leakage.
After injection, adhesive tape was wrapped around the tail root to fix the catheter (the catheter was litigated about 3-5 cm from the anus, then cut off after ligation, and an adhesive tape was wrapped around the tail root for fixation. The fixation of the pressure-sensitive adhesive tape is based on the standard of non-looseness of the urinary catheter, which should not be too tight and cause discomfort for animals to bite. The catheter should be fixed by tape twice: the catheter should be knotted the first time, while the remaining catheter should be fixed at the end of the tail the second time. The 3 cm scale on the catheter should be at the anus, and the catheter should not be taken out when the knot is tied). The rats were put back into the cage after administration.
An anal plug was maintained in the rectum for 4 h to extend the retention time of the drug in the animal body. The anal plug dropped within 4 h after the drug was administered, and the approximate time period of the drop was recorded.
Blood samples were processed by coating all centrifuge tubes with EDTA-K2 and storing them either in a refrigerator (2-8° C.) or a cooler filled with ice, protected from light prior to use; the blood that was collected was transferred into the centrifuge tubes and stored in ice box protected from light after having been mixed manually by reversing the tubes at least 5 times. The samples were subsequently centrifuged at 1800 g for 10 minutes at 2 to 8° C. within 2 hours from blood collection. After the centrifugation, the collected plasma samples were transferred into newly labeled centrifuge tubes, aliquoted into two sets, and stored below −70° C. away from light.
AUC, Cmax, Tmax, and any other parameters as needed, were calculated using WinNonlin software. Microsoft Office Excel was used for data statistical analysis, including mean, standard deviation (SD), and coefficient of variation (CV), etc. The difference in pharmacokinetic parameters between the two groups was compared.

SD rats = assay: Experimental gastric ulcer model (anhydrous alcohol); assay type: in vivo; details: omeprazole 2 mg/mL, 4 mg/kg oral gavage once per day for 30 days
Experimental: SPF grade SD rats were used in this experiment, with 10 rats in each group. According to an evaluation method of health food for gastric ulcer issued by Chinese State Food and Drug Administration, the protective effect of Compound B on acute gastric ulcers induced by anhydrous alcohol was observed after continuous gavage for 30 days.
Omeprazole enteric-coated capsules (20 mg/capsule; Heilongjiang Norgas Pharmaceutical Co., Ltd., China) were opened and the powder was dissolved in water to make a 2 mg/mL solution. Compound B (see Example 7 above) powder was dissolved in water to make two solutions with concentrations of 0.25 mg/mL and 0.75 mg/mL. Administration volumes were […].
All drugs were administrated as shown in Table 13 by oral gavage for 30 consecutive days, once per day. The rats had free access to water. On the 30th day, rats were fasted for 24 hours after the last drug administration. On the 31st day, 1.0 mL/rat of absolute ethanol was given by gavage to each rat in all of the experimental groups except the control group.
1 hour later, all of the rats were sacrificed and dissected to expose the intact stomach, followed by ligation of the pylorus. 10% formaldehyde solution was administered into the stomach by perfusion and fixed for 20 minutes. The stomach was dissociated after fixation and cut open along the greater curvature. The stomach contents were washed off the lining with saline to reveal the gastric mucosa.
The length and width of gastric mucosal bleeding were measured with a Vernier calliper under a stereo microscope or by the naked eye.

Question: Which results are given for `CC(C)(O)c1ccccc1CC[C@@H](SCC1(CC(=O)O)CC1)c1cccc(/C=C/c2ccc3ccc(Cl)cc3n2)c1` [Montelukast, montelukast sodium]?
Answer: AUC(0-t) ([1]; female): 229 ng·h/mL; Cmax ([1]; female): 156 ng/mL; Tmax ([1]; female): 30 min; half-life ([1]; female): 138 min; AUC(0-t) ([1]; male): 238 ng·h/mL; Cmax ([1]; male): 151 ng/mL; Tmax ([1]; male): 30 min; half-life ([1]; male): 108 min

Question: What does the source list for `C[C@@H]1C[C@H]2[C@@H]3CCC4=CC(=O)C=C[C@]4(C)[C@@]3(F)[C@@H](O)C[C@]2(C)[C@@]1(O)C(=O)CO` [Dex, Dexamethasone, reference compound]?
Answer: Sum of the scores (C57BL/6 mice): 2.14; Inflammation score (C57BL/6 mice; 1 h before and 23 h after carrageenan, histology, score 1-3): 0.57; Edema score (C57BL/6 mice; histology, score 1-3): 1.57

Question: With “I: AKPS[Dopa][Hyp]T[Dopa][Hyp]KKK / II: AKPS[Dopa][Hyp]T[Dopa][Hyp]KK / III: AKPS[Dopa][Hyp]T[Dopa][Hyp]K / IV: AKPS[Dopa][Hyp]T[Dopa][Hyp]K (amide I:11-IV:C, I:12-II:C, II:11-III:C) [Compound C, [(Ala-Lys-Pro-Ser-DOPA-Hyp-Thr-DOPA-Hyp-Lys)2-Lys]2-Lys]” as the compound, how does the “IC50 (virus inhibition rate)” value [2] read?
Answer: The value was greater than 32 µg/mL.

Question: Which “symptoms of ulcerative colitis” value (person two) does the source give for `Nc1ccc(O)c(C(=O)O)c1` [Mesalazine, 5-aminosalicylic acid] here?
Answer: The value was “symptoms did not change”.

Question: What about the AUC(0-t) (in vivo; female) of the same compound?
Answer: Its AUC(0-t) is 38900 ng·h/mL.

Question: What about the Cmax (in vivo; female) of the same compound?
Answer: Its Cmax is 13800 ng/mL.

Question: What about the Tmax (in vivo; female) of the same compound?
Answer: Its Tmax is 1.83 h.

Question: What about the AUC(0-t) (in vivo; male) of the same compound?
Answer: Its AUC(0-t) is 56100 ng·h/mL.

Question: And the Cmax (in vivo; male)?
Answer: The Cmax was 17500 ng/mL.

Question: What about the Tmax (in vivo; male) of the same compound?
Answer: Its Tmax is 1.67 h.

Question: With `COc1ccc2[nH]c([S+]([O-])Cc3ncc(C)c(OC)c3C)nc2c1` (centres unmarked) [Omeprazole, reference compound] as the compound, how does the Damage score (SD rats) read?
Answer: Its Damage score is 20.
